We go through two compounds from US7879792B2, “Synthetic peptide inhibitors of thrombin and thrombin activation of protease activated receptors 1 and 4” (The Regents of the University of Michigan, priority 2005, dated 2011).

Read-outs that look alike come from different tables or passages of the source. Where a SMILES comes first, the peptide text is derived from it.

In data set [1] the target is human α-thrombin (Homo sapiens, UniProt P00734). The data set can be described thus: inhibition of α-thrombin hydrolysis of chromogenic substrate. The conditions noted are these: Ki (μM) + SD, αIIa (2 nM), alpha-thrombin 2 nM, Sar-Pro-Arg-paranitroanilide. The data set is classed as biochemical.
A short description of data set [2]: stability testing in intestinal perfusate. It is filed as in vitro ADME. The conditions noted are these: rat, 37° C. The protocol:
(§1) Stability testing of the various compounds was performed in buffer, intestinal perfusate, and an intestinal homogenate preparation to assess the potential oral availability of these compounds. Initial studies prepared the tissue for stability studies. The buffer used in stability testing is 10 mM MES (pH 6.5) containing 135 mM NaCl, and 5 mM KCl. To collect intestinal perfusate from rats, male Sprague Dawley rats, 8 to 10 weeks old, weighing 250 to 350 g were fasted 15 to 18 hours with water given ad libitum. Anesthesia was administered by intramuscular injection of pentobarbital/ketamine (40 mg/kg and 80 mg/kg, respectively). The rats were placed on a warming pad under a surgical lamp to maintain body temperature and jejunal intestinal segments were exposed through a midline, abdominal incision. Approximately 20 cm segment of the jejunum (2 to 4 cm distal to the ligament of Treitz) was cannulated and the intestinal segments were perfused with 10 mM MES (pH 6.5) containing 135 mM NaCl, and 5 mM KCl at a flow-rate of 0.5 ml/min at 37° C. using a constant infusion pump (Harvard Apparatus, South Natick, Mass.). The collected perfusate was stored at −80° C. until use for ex vivo stability studies. After collection, the perfused intestinal segments were flushed with ice-cold 0.15 M KCl solution and the animal was euthanized and the jejunal intestinal segment detached. The inner intestinal tissue layers are scraped out and homogenized in MES buffer (pH 6.5) in a ratio of 1 part of intestinal tissue to 5 parts buffer. Total protein content of the perfusate and the homogenate were determined using a Biorad protein assay kit. The intestinal homogenate samples were used immediately or rapidly frozen at −80° C. until stability analysis.
(§2) The actual stability testing protocol is as follows: A 0.1 ml aliquot of the synthetic peptide solution (1 mg/ml) was added to 0.9 ml of MES buffer, pH 6.5, intestinal perfusate, or intestinal homogenate at 37° C. Samples were mixed by vortexing and 100 microliter aliquots were removed over a 60 to 90 minute period for analysis of breakdown products. The 100 microliter sample aliquots were diluted 10 fold with water and subjected to solid phase extraction using a Waters Oasis HLB column. Briefly, the columns were preconditioned by passing 1 ml of MeOH and 1 ml of water over the column, and 1 ml of sample was added to the column. The column was washed with 5% methanol:95% water solution to remove proteins and salts, then eluted with 1 ml of 100% methanol. The methanol was removed by vacuum, and the sample was reconstituted in mobile phase for LC/MS/MS analysis.
(§3) LC/MS/MS analysis was performed on a HP1100 HPLC (Hewlett Packard) interfaced with a Quattro II MS/MS detector (Waters/Micromass). For the HPLC separation, a 10 μL aliquot of sample in a mobile phase consisting of an equal volume mixture of acetonitrile/water containing 0.5% formic acid was injected onto a 150 mm×2.2 mm, 5 μm C8 column (Higgins Analytical Inc) and developed at a flow rate of 0.2 ml/min for 5 minutes. The MS detector was used in single ion recording mode at a cone voltage of 50 Volts.

The nature of data set [3]: rat intestinal in situ perfusion permeability. It is filed as in vivo. The conditions noted are these: rat. The protocol:
To determine the intestinal permeability of the various peptide analogs, male albino Sprague-Dawley rats, 9-10 weeks old and weighing 250-350 g were fasted for 18 hours with free access to water. The rats were anesthetized with an intramuscular injection of ketamine/xylazine/butorphanol (87 mg/kg, 6 mg/kg, and 0.2 mg/kg body weight, respectively). The abdomen was opened by a 4-5 cm midline incision and a 10 cm jejunal segment was cannulated on two ends and connected to a syringe pump that pumps the perfusing solution through the cannulated intestine at a constant rate and at a temperature of 37° C. The isolated segment was rinsed with 10 mM MES (pH 6.5) at a flow-rate of 0.5 ml/min in order to clean out any residual debris. Jejunal perfusion was subsequently performed with the same buffer containing 135 mM NaCl, 5 mM KCl and 0.01% PEG 4000 at a flow rate of 0.2 ml/min containing test compound, internal permeability reference standards (e.g., metoprolol) and ^14C-PEG 4000 as a non-absorbable marker for measuring water flux. After steady-state is reached within the perfused intestinal segment, typically 30 minutes after start of perfusion, samples were taken at 10 minute intervals for 1 hour. ^14C (PEG-4000) levels are assayed by scintillation counting and test compounds and internal permeability standard analysis by LC/MS/MS. Samples are frozen and stored at −80° C. until analysis.
The effective permeability (Peff) determined from the in situ perfusion is calculated from equation 1
[formula] where Q is the perfusion buffer flow rate, C′out is the outlet concentration of the compound that has been adjusted for water transport (equation 2) after passing through the intestinal segment, C′in is the inlet or starting concentration of the compound, R is the radius of the intestinal segment (set to 0.2 cm) and L is the length of the intestinal segment. To correct for water transport, a non-absorbed radioactive tracer, ^14C PEG-4000, is included in the perfusion buffer. The Cout/Cin ratio is corrected for water transport according to equation 2:
[formula] where Aout-A0 is equal to the radioactivity counts in the outlet sample minus background (dpm) and Ain-A0 is equal to the radioactivity counts in the inlet sample minus background (dpm).
In certain instances, in addition to perfusing the intestinal segment as described, plasma is drawn through a portal vein cannula to determine the amount of material entering the portal system during the perfusion. This additional experimental step can aid in determining the true intestinal permeability of unstable compounds. After steady state conditions are reached as described above, 0.5 ml aliquots of plasma are withdrawn from the portal vein at regular intervals throughout the experimental time frame. The plasma samples are deproteinated with acetonitrile and the sample is subjected to SPE and LC/MS analysis as described above. From the plasma concentration of compound, the mesenteric permeability can be determined by substitution into equation 3: Flux=A*Pe-mes*Ci 3) where Flux is equal to the portal blood flow (estimated at 1 ml/min in the rat)×the steady state mesenteric blood concentration of the peptide analogs, A is the absorptive area of the intestine (estimated at 12.56 cm^2 in the rat intestine), Pe-mes is the mesenteric Permeability (cm/sec), and Ci is the starting concentration of drug in the perfusate (ug/ml).

Data set [4] in a line: stability testing in intestinal homogenate. The data set is classed as in vitro ADME. The conditions noted are these: rat. The protocol: as §1, §2, §3
Data set [5] is described as follows: stability testing in MES buffer (pH 6.5). It is filed as physicochemical. The conditions noted are these: 37° C., read-out: t1/2 (min) MES Buffer (pH 6.5). The protocol: as §1
The actual stability testing protocol is as follows: A 0.1 ml aliquot of the synthetic peptide solution (1 mg/ml) was added to 0.9 ml of MES buffer, pH 6.5, intestinal perfusate, or intestinal homogenate at 37° C. Samples were mixed by vortexing and 100 microliter aliquots were removed over a 60 to 90 minute period for analysis of breakdown products. […]

On to `Cc1ccc(C[C@H](NC(=O)[C@@H](C)NC(=O)[C@@H]2CCCN2C(=O)[C@@H]2C[C@@H]3CCCC[C@@H]3N2C(=O)[C@H](N)CCCN=C(N)N)C(N)=O)cc1` [rOicPaF(p-Me), D-Arg-Oic-Pro-D-Ala-Phe(p-Me)] (HELM PEPTIDE1{[dR].[O=C([C@@H]1C[C@@H]2CCCC[C@@H]2N1[*:1])[*:2]].P.[dA].[Cc1ccc(C[C@H](N[*:1])C(=O)[*:2])cc1].[am]}$$$$V2.0), for which, in data set [1], the inhibitory constant (Ki) was in the range of 6.4 to 10.6 µM. Besides, the half-life at 0.1 mg/ml came out at 314 min in data set [2] (male, Sprague Dawley, intestinal (jejunal) perfusate, pH 6.5, rat, read-out: t1/2 (min) Intestinal Perfusate); 757 min in data set [4] (male, Sprague Dawley, intestinal (jejunal) homogenate, pH 6.5, 37° C., read-out: t1/2 (min) Intestinal Homogenate); 363 min in data set [5]. Also, the Papp in data set [3] (male, Sprague-Dawley, other: in situ jejunal perfusion, pH 6.5, from portal vein plasma during perfusion, read-out: Permeability (mesenteric)) stood at 0.309 ×10⁻⁶ cm/s; in data set [3] (male, Sprague-Dawley, other: in situ jejunal perfusion, pH 6.5, rat jejunal in situ perfusion, read-out: Permeability (in situ)) it was 1 ×10⁻⁶ cm/s. Moreover, in data set [4], the “stability in intestinal homogenate (FIG. 12)” value is listed as “most stable”.

Regarding `C[C@@H](NC(=O)[C@@H]1CCCN1C(=O)[C@@H]1C[C@@H]2CCCC[C@@H]2N1C(=O)[C@H](N)CCCNC(=N)N)C(=O)N[C@@H](Cc1ccccc1)C(N)=O` [rOicPaF] (HELM PEPTIDE1{[dR].[O=C([C@@H]1C[C@@H]2CCCC[C@@H]2N1[*:1])[*:2]].P.[dA].F.[am]}$$$$V2.0), the “t1/2 (min) Intestinal Perfusate” value in data set [2] was “stable”. Also, the Papp in data set [3] (from portal vein plasma during perfusion, read-out: Permeability (mesenteric)) is 0.139 ×10⁻⁶ cm/s; in data set [3] (rat jejunal in situ perfusion, read-out: Permeability (in situ)) it was 6.2 ×10⁻⁶ cm/s. In data set [4], the “stability in intestinal homogenate (FIG. 12)” value was “most stable”. The “t1/2 (min) Intestinal Homogenate” value in data set [4] (37° C.) is given as “stable”. In addition, the half-life in data set [5] amounted to 604 min.

By Ki is commonly meant the dissociation constant of the complex between target and ligand, obtained from inhibition or displacement.
